Experimental data from ChEMBL document CHEMBL5223149, “The Emerging Landscape of Small-Molecule Therapeutics for the Treatment of Huntington's Disease” (J Med Chem, 2022).
Converted amounts (≈) assume the structure as drawn.

Tests used:
[1] = biological target: T1, Protein-glutamine gamma-glutamyltransferase (Homo sapiens, UniProt P21980); assay: Inhibition of TG2 (unknown origin)
T1 sequence (P21980 whole entry): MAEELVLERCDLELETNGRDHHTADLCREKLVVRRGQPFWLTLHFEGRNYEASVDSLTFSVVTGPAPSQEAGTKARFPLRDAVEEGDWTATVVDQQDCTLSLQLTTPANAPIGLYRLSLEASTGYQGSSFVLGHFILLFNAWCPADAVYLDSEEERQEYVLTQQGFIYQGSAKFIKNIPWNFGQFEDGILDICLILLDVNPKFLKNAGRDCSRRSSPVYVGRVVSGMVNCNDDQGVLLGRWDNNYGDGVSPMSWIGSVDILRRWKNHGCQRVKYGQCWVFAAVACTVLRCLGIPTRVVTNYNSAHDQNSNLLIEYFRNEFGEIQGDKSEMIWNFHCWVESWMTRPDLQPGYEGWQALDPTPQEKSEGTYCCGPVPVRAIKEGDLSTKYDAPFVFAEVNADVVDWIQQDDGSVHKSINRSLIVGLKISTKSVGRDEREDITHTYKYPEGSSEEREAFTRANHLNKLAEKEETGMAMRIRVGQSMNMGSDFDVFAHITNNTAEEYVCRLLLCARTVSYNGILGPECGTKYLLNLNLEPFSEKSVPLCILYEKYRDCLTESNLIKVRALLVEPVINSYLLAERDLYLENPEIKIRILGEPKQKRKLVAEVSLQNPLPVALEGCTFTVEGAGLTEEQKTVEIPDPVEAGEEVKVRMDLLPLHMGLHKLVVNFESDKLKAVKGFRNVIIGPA

[2] = Solubility of the compound; format: physicochemical
[3] = in vivo; details: mouse, po

| SMILES | IC50 [1] [nM] | solubility [2] [µg/mL] | bioavailability [3] [%] |
| --- | --- | --- | --- |
| C=CC(=O)NCCCCC(NC(=O)OCc1ccccc1)C(=O)N1CCN(c2ccccc2Cl)CC1 (stereo not drawn) | 62 | – | – |
| O=c1cc(N2CCOCC2)cc(N2CCCCC[C@@H]2Cc2ccccc2)[nH]1 | – | 58 (≈ 158 µM) | 68 |
